In experiment [1] the test system is SR vesicles. Kind of experiment: 45Ca2+ uptake in SR vesicles from human myocardium. Format: biochemical. The note with it: cAMP 3 μM, cilostamide 1 μM; SR fractions. The protocol: FIG. 7 a-f. cAMP, PKA, and PDE3-inhibition increase SERCA2 activity and Ca^2+ uptake. A. After incubation of SR fractions (20 μg) in the absence or presence of the indicated concentrations of ATP and/or cAMP, without or with cilostamide or rolipram, endogenous PLB, phosphorylated PLB, and ρ-actin were detected after SDS-PAGE and immunoblotting. Data are representative of three experiments. In these and other Western blots, PLB is predominantly monomeric, most likely due to the heating of samples, prior to electrophoresis, under reducing conditions (buffer containing β-mercatoethanol, DTT, and SDS). […] PDE activity in human cardiac SR fractions, expressed as specific activity (pmol cAMP hydrolyzed/min/mg). […] PDE3 activity was determined as the cilostamide-sensitive fraction, and PDE4 activity as the rolipram-sensitive fraction. […] D. After incubation of SR fractions without or with the indicated concentrations of cAMP (0-10 μM), ^45Ca^2+ uptake was measured in the presence of 0.5 μM free Ca^2+. […]
Oxalate-dependent Ca^2+ uptake was quantified as described previously (17). […] After washing four times with 4 ml buffer containing 140 mM KCl, 10 mM NaCl, 2 mM MgCl2, 1 mM CaCl2 and 50 mM imidazole-HCl, (pH 7.0), radioactivity retained on the filters was quantified by liquid scintillation counting. Free [Ca^2+] was calculated using a program obtained at http://www.stanford.edu/˜cpatton/webmaxc/webmaxcS.htm.

Experiment [2] deals with neonatal rat ventricular myocytes. As to the kind of experiment: Hypertrophy of neonatal rat ventricular myocytes (PDE3 inhibitor treatment or transfection with dominant-negative constructs, with or without norepinephrine). The format is cell-based. The note with it: neonatal rat ventricular myocytes; treatment or transfection alone. The source says:
FIG. 5. Anti-hypertrophic actions of PDE3A1-selective targeting in neonatal rat ventricular myocytes.
In contrast, expression of the PDE3A1 dominant negative has no pro-hypertrophic effect, and actually blocks the hypertrophic responses to norepinephrine.
In neonatal rat ventricular myocytes, conventional PDE3 inhibition promotes cellular hypertrophy, which may be associated with adverse consequences in heart failure. We questioned what effect PDE3A1-selective inhibition would have. […] The F1004A substitution is a change in the amino acid sequence of PDE3A1 at amino acid position 1004 from a phenylalanine to an alanine. We transfected neonatal rat ventricular myocytes with this dominant-negative construct to competitively block the protein-protein interactions that localize PDE3A1 to specific intracellular microdomains. […] To our knowledge, this is the first direct evidence that conventional PDE3 inhibition and isoform-selective targeting have different effects in cardiac myocytes, and that some of the adverse consequences of nonselective PDE3 inhibition may be averted by isoform-selective targeting involving protein-protein interactions.

Experiment [3] deals with PLB. Kind of experiment: cAMP-dependent phosphorylation of endogenous PLB in human myocardial membranes. The note with it: 0.1 μM cAMP; cilostamide 1 μM or rolipram 10 μM; human left ventricular microsomes. The format is biochemical. Here is the method: FIG. 7 a-f. cAMP, PKA, and PDE3-inhibition increase SERCA2 activity and Ca^2+ uptake. A. After incubation of SR fractions (20 μg) in the absence or presence of the indicated concentrations of ATP and/or cAMP, without or with cilostamide or rolipram, endogenous PLB, phosphorylated PLB, and ρ-actin were detected after SDS-PAGE and immunoblotting. Data are representative of three experiments. In these and other Western blots, PLB is predominantly monomeric, most likely due to the heating of samples, prior to electrophoresis, under reducing conditions (buffer containing β-mercatoethanol, DTT, and SDS). B. Bar graph summarizing pSer16PLB/PLB total ratios. *P<0.01 vs. control (n=3 independent experiments). C. PDE activity in human cardiac SR fractions, expressed as specific activity (pmol cAMP hydrolyzed/min/mg). Results are presented as mean+/−SEM (n=3 preparations). PDE3 activity was determined as the cilostamide-sensitive fraction, and PDE4 activity as the rolipram-sensitive fraction. […] D. After incubation of SR fractions without or with the indicated concentrations of cAMP (0-10 μM), ^45Ca^2+ uptake was measured in the presence of 0.5 μM free Ca^2+. Results are presented as % increase due to cAMP, with basal Ca^2+ uptake (9.4+/−0.8 nmol/mg/min, n=3) taken as 100%. […]

On to `CN(C(=O)CCCOc1ccc2[nH]c(=O)ccc2c1)C1CCCCC1` [cilostamide], for which, in experiment [1], the “effect on cAMP-increased ATP-dependent, oxalate-supported Ca2+ uptake” value is reported as “potentiated”. Moreover, the cellular hypertrophy result in experiment [2] is “promote myocyte hypertrophy”. In addition, in experiment [3], the “phosphorylation of PLB at S16 by endogenous PKA” value is “stimulated”.
As for `COc1ccc(C2CNC(=O)C2)cc1OC1CCCC1` (stereo not shown) [rolipram], the “phosphorylation of PLB at S16 by endogenous PKA” value in experiment [3] is recorded as “no effect”.

The values are drawn from patent publication US9994830B2, “Methods for modulating cyclic nucleotide-mediated signaling in cardiac myocytes and compositions” (The United States of America as Represented by the …, priority 2014, dated 2018).
